Values quoted from earlier work in article PMC5937704 (Biochemistry, 2018).

Experiments:
[1] = system: bromodomain 2 (BD2) of TAF1
[2] = system: bromodomain 1 (BD1) of TAF1

## CCOC(=O)Nc1cc(-c2ccc(C)c(NS(C)(=O)=O)c2)nn2c(C)nnc12 [BSP, Bromosporine]
[1]
  affinity for BD2 of TAF1: nanomolar affinity
[2]
  affinity for BD1 of TAF1: significantly weaker (micromolar) affinity
